Among the data in patent publication US20040121021A1, “Determination of adequate ozone disinfection” (priority 2002, published 2004) are color loss values, retold here.

This data set can be described thus: Bleaching of dye-impregnated filter paper strips in flowing ozonated water. The format is physicochemical. The source says: Each kind of indicator-impregnated substrate, or Ct strip, must be tested to empirically determine the Ct value range most suitable for that particular combination of indicator and substrate. To empirically determine the Ct value range for a Ct strip having a particular indicator impregnated onto a particular substrate having particular properties, the particular Ct strip is exposed to known concentrations of ozone over incremental periods of time. The resulting color of the substrate is recorded after given increments of time until the color is entirely bleached out or until a maximum desired exposure time has passed. The color of the Ct strip, after each time increment of immersion in a known concentration of ozone, is an accurate measure of the Ct value for an exposed surface. The resulting colors are recorded for comparison use, as on a color chart, for that particular combination of indicator and substrate. Strips of filter paper ½″×2″ were cut and immersed in a 1000 ppm solution of Solvent Green 3 (1,4-bis[(4-methylphenyl)amino]-9,10-anthracenedione) in acetone for 5 seconds at room temperature. When dyed in this manner, strips were initially an extremely dark green and dried to a medium green color. When submerged in a flowing bath of 3 ppm ozone dissolved in water, bleaching was observed. […] Strips of filter paper ½″×2″ were cut and immersed in a 1000 ppm solution of Solvent Red 23 in acetone for 5 seconds at room temperature. When submerged in a flowing bath of 5 ppm ozone dissolved in water, bleaching was observed. […] Strips of filter paper ½″×2″ were cut and immersed in a 1000 ppm solution of Solvent Violet 13 in acetone for 5 seconds at room temperature. When submerged in a flowing bath of 5 ppm ozone dissolved in water, bleaching was observed. […] Strips of filter paper ½″×2″ were cut and immersed in a 500 ppm solution of Solvent Yellow 33 in acetone for 5 seconds at room temperature. When submerged in a flowing bath of 6 ppm ozone dissolved in water, bleaching was observed.

SMILES strings stand for the structures.

For the compound `Cc1ccc(Nc2ccc(Nc3ccc(C)cc3)c3c2C(=O)c2ccccc2C3=O)cc1` [Solvent Green 3, 1,4-bis[(4-methylphenyl)amino]-9,10-anthracenedione], the color loss (filter paper strip dyed in 1000 ppm solution in acetone, flowing bath of 3 ppm ozone dissolved in water, after 90 minutes) is listed as around 40%. Take `Oc1ccc2ccccc2c1N=Nc1ccc(N=Nc2ccccc2)cc1` [Solvent Red 23]: where the note is “filter paper strip dyed in 1000 ppm Solvent Red 23 solution in acetone, flowing bath of 5 ppm ozone dissolved in water, after 90 minutes”, the color loss is recorded as around 30%. `Cc1ccc(Nc2ccc(O)c3c2C(=O)c2ccccc2C3=O)cc1` [Solvent Violet 13]: where the note is “filter paper strip dyed in 1000 ppm Solvent Red 23 solution in acetone, flowing bath of 5 ppm ozone dissolved in water, after 240 minutes”, the color loss is around 75%. For `O=C1c2ccccc2C(=O)C1c1ccc2ccccc2n1` [Solvent Yellow 33], where the note is “filter paper strip dyed in 500 ppm solution in acetone, flowing bath of 6 ppm ozone dissolved in water, after 20 minutes”, the color loss result was “complete color loss”.
